For 46 compounds, IC50 results are on record in patent US20200338084A1, “INHIBITORS OF LOW MOLECULAR WEIGHT PROTEIN TYROSINE PHOSPHATASE (LMPTP) AND USES THEREOF” (Sanford Burnham Prebys Medical Discovery Institute, priority 2018, published 2020).

Usually IC50 stands for the concentration at which inhibition is half-maximal.

A value given as a limit tells only on which side of the number the result lay.

In this assay the target is T1, human LMPTP-A (Homo sapiens, UniProt P24666).
T1 sequence (P24666 1-158): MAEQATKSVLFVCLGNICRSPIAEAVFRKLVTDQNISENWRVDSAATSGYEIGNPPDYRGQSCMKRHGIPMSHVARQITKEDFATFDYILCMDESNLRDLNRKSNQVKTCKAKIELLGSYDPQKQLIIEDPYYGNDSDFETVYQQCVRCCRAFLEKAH
Kind of assay: Enzyme Assay of Inhibition of LMPTP-A. It counts as biochemical. The following applies: phosphatase assay, OMFP or pNPP substrate, 50 mM Bis-Tris pH 6.0, 37° C. How it is done: Phosphatase assays were performed in buffer containing 50 mM Bis-Tris, pH 6.0, 1 mM DTT and 0.01% Triton X-100 at 37° C. For assays conducted with 3-O-methylfluorescein phosphate (OMFP) as substrate, fluorescence was monitored continuously at λex=485 and λem=525 nm. For assays conducted with para-nitrophenylphosphate (pNPP) as substrate, the reaction was stopped by addition of 2× reaction volume of 1 M NaOH, and absorbance was measured at 405 nm. IC50 values of compounds disclosed herein were determined from plots of inhibitor concentration versus percentage of enzyme activity. For inhibitor selectivity assays, each PTP was incubated with either 0.4 mM OMFP or 5 mM pNPP in the presence of 40 μM compound or DMSO. […] For the inhibitor reversibility assay, 50 nM human LMPTP-A was pre-incubated with 10 μM of compound disclosed herein or DMSO for 5 min. The enzyme was diluted 100× in phosphatase assay buffer containing 0.4 mM OMFP and fluorescence was measured at the indicated time points.
For the compound `NCCCCNc1ncn(Cc2c(Cl)cccc2Cl)c2ncnc1-2` [(4-Aminobutyl){3-[(2,6-dichlorophenyl)methyl](3-hydropurin-6-yl)}amine], the IC50 was in the range of 1000 to 20000 nM. In the case of `Clc1cccc(Cn2cnc(NCc3ccco3)c3ncnc2-3)c1Cl` [3-(2,3-dichlorobenzyl)-N-(furan-2-ylmethyl)-3H-purin-6-amine] it was 1000 to 20000 nM; in that of `COc1ccncc1-c1nc2c(N)ncn(Cc3c(Cl)cccc3Cl)c-2n1` [3-[(2,6-Dichlorophenyl)methyl]-8-(4-methoxy(3-pyridyl))-3-hydropurine-6-ylamine], at most 1000 nM; in that of `Cc1cccc(C)c1Nc1ncn(Cc2c(Cl)cccc2Cl)c2ncnc1-2` [{3-[(2,6-Dichlorophenyl)methyl](3-hydropurin-6-yl)}(2,6-dimethylphenyl)amine], 1000 to 20000 nM. The compound `Nc1ncn(Cc2c(F)ccc(F)c2F)c2ncnc1-2` [3-(2,3,6-Trifluoro-benzyl)-3H-purin-6-ylamine] returned a half-maximal inhibitory concentration (IC50) of 1000 to 20000 nM.

The compound `COc1ccc(Cn2cnc(N)c3ncnc2-3)cc1` [3-(4-Methoxy-benzyl)-3H-purin-6-ylamine] gave a half-maximal inhibitory concentration (IC50) of 1000 to 20000 nM. `Nc1ncn(Cc2ccc(Cl)cc2Cl)c2ncnc1-2` [3-(2,4-Dichloro-benzyl)-3H-purin-6-ylamine]: the IC50 is 1000 to 20000 nM. As to `N#Cc1ccc(Cn2cnc(NCc3ccco3)c3ncnc2-3)cc1` [4-{6-[(Furan-2-ylmethyl)-amino]-purin-3-ylmethyl}-benzonitrile], the concentration for half-maximal inhibition (IC50) was at least 20000 nM. Turning to `Fc1ccccc1Nc1ncn(Cc2c(Cl)cccc2Cl)c2ncnc1-2` [{3-[(2,6-Dichlorophenyl)methyl](3-hydropurin-6-yl)}(2-fluorophenyl)amine], the IC50 was 1000 to 20000 nM. For the compound `Cc1ccc(-c2nc3c(N)ncn(Cc4c(Cl)cccc4Cl)c-3n2)cc1` [3-[(2,6-Dichlorophenyl)methyl]-8-(4-methylphenyl)-3-hydropurine-6-ylamine], the concentration for half-maximal inhibition (IC50) was at most 1000 nM. For `Nc1ncn(Cc2c(Cl)cncc2Cl)c2nc(-c3ccccc3)nc1-2` [3-[(3,5-Dichloro(4-pyridyl))methyl]-8-phenyl-3-hydropurine-6-ylamine], the IC50 was at most 1000 nM.

`Nc1ncn(Cc2c(Cl)cccc2Cl)c2nc(-c3ccco3)nc1-2` [3-[(2,6-Dichlorophenyl)methyl]-8-(2-furyl)-3-hydropurine-6-ylamine] showed a concentration for half-maximal inhibition (IC50) of at most 1000 nM. `Cc1ccc(CNc2ncn(Cc3c(Cl)cccc3Cl)c3ncnc2-3)o1` [{3-[(2,6-dichlorophenyl)methyl](3-hydropurin-6-yl)}[(5-methyl(2-furyl))methyl]amine] returned an IC50 of 1000 to 20000 nM. As for `O=C(O)c1ccc(Nc2ncn(Cc3c(Cl)cccc3Cl)c3ncnc2-3)cc1` [4-({3-[(2,6-Dichlorophenyl)methyl]-3-hydropurin-6-yl}amino)benzoic acid], the figure is 1000 to 20000 nM; as for `Clc1cccc(Cl)c1Cn1cnc(NCc2cccnc2)c2ncnc1-2` [[3-(2,6-Dichloro-benzyl)-3H-purin-6-yl]-pyridin-3-ylmethyl-amine], 1000 to 20000 nM. `Nc1ncn(Cc2cccc(Cl)c2Cl)c2ncnc1-2` [3-(2,3-Dichloro-benzyl)-3H-purin-6-ylamine]: the IC50 lay in the range of 1000 to 20000 nM. As for `Nc1ncn(Cc2c(Cl)cccc2Cl)c2nc(Br)nc1-2` [3-[(2,6-Dichlorophenyl)methyl]-8-bromo-3-hydropurine-6-ylamine], the figure is 1000 to 20000 nM; as for `CN1CCC(c2nc3c(N)ncn(Cc4c(Cl)cccc4Cl)c-3n2)CC1` [3-[(2,6-Dichlorophenyl)methyl]-8-(1-methyl(4-piperidyl))-3-hydropurine-6-ylamine], at most 1000 nM.

For `COc1ccc(-c2nc3c(N)ncn(Cc4c(Cl)cccc4Cl)c-3n2)cc1` [3-[(2,6-Dichlorophenyl)methyl]-8-(4-methoxyphenyl)-3-hydropurine-6-ylamine], the IC50 is at most 1000 nM. In the case of `Nc1ncn(Cc2c(F)cccc2Cl)c2ncnc1-2` [3-(2-Chloro-6-fluoro-benzyl)-3H-purin-6-ylamine] it was at most 1000 nM. With `Nc1ncn(Cc2c(Cl)cccc2Cl)c2nc(C3CCCCC3)nc1-2` [3-[(2,6-Dichlorophenyl)methyl]-8-cyclohexyl-3-hydropurine-6-ylamine], the half-inhibitory concentration (IC50) is at most 1000 nM.

For `Nc1ncn(Cc2ccncc2)c2ncnc1-2` [3-Pyridin-4-ylmethyl-3H-purin-6-ylamine], the IC50 was in the range of 1000 to 20000 nM. In the case of `COc1ccccc1-c1nc2c(N)ncn(Cc3c(Cl)cccc3Cl)c-2n1` [3-[(2,6-Dichlorophenyl)methyl]-8-(2-methoxyphenyl)-3-hydropurine-6-ylamine] it was at most 1000 nM; in that of `CC(=O)c1ccc(Nc2ncn(Cc3c(Cl)cccc3Cl)c3ncnc2-3)cc1` [1-Acetyl-4-({3-[(2,6-dichlorophenyl)methyl](3-hydropurin-6-yl)}amino)benzene], 1000 to 20000 nM; in that of `Nc1ncn(Cc2c(Cl)cccc2Cl)c2nc(C(c3ccccc3)c3ccccc3)nc1-2` [3-[(2,6-Dichlorophenyl)methyl]-8-(diphenylmethyl)-3-hydropurine-6-ylamine], at most 1000 nM. As for `Nc1ncn(Cc2ccc(Cl)cc2)c2ncnc1-2` [3-(4-Chloro-benzyl)-3H-purin-6-ylamine], the figure is at least 20000 nM; as for `CC(C)(C)c1cccc(Nc2ncn(Cc3c(Cl)cccc3Cl)c3ncnc2-3)c1` [{3-[(2,6-Dichlorophenyl)methyl](3-hydropurin-6-yl)}[3-(tert-butyl)phenyl]amine], 1000 to 20000 nM; as for `N#Cc1ccc(-c2nc3c(N)ncn(Cc4c(Cl)cccc4Cl)c-3n2)s1` [5-(6-amino-3-(2,6-dichlorobenzyl)-3H-purin-8-yl)thiophene-2-carbonitrile], at most 1000 nM.

The compound `N#Cc1cccc(Cl)c1Cn1cnc(N)c2ncnc1-2` [2-((6-amino-3H-purin-3-yl)methyl)-3-chlorobenzonitrile] gave an IC50 of at most 1000 nM. For the compound `Fc1ccc(Cn2cnc(NCc3ccco3)c3ncnc2-3)cc1` [[3-(4-Fluoro-benzyl)-3H-purin-6-yl]-furan-2-ylmethyl-amine], the IC50 is at least 20000 nM. `COCCNc1ncn(Cc2c(Cl)cccc2Cl)c2ncnc1-2` [[3-(2,6-Dichloro-benzyl)-3H-purin-6-yl]-(2-methoxy-ethyl)-amine] had an IC50 of 1000 to 20000 nM.

Take `Cn1cc(-c2nc3c(N)ncn(Cc4c(Cl)cccc4Cl)c-3n2)cn1` [3-[(2,6-Dichlorophenyl)methyl]-8-(1-methylpyrazol-4-yl)-3-hydropurine-6-ylamine]: the IC50 is at most 1000 nM. In the case of `Nc1ncn(Cc2c(Br)cccc2Br)c2ncnc1-2` [3-(2,6-dibromobenzyl)-3H-purin-6-amine] it was at most 1000 nM; in that of `Nc1ncn(Cc2c(Cl)cccc2Cl)c2nc(-c3cc[nH]n3)nc1-2` [3-[(2,6-Dichlorophenyl)methyl]-8-pyrazol-5-yl-3-hydropurine-6-ylamine], at least 20000 nM. In the case of `c1ccc(-n2cnc(NCc3ccco3)c3ncnc2-3)cc1` [(2-Furylmethyl)(3-phenyl(3-hydropurin-6-yl))amine] it was at least 20000 nM.

For the compound `Nc1ncn(Cc2c(Cl)cccc2Cl)c2nc(COc3ccc(Br)cc3)nc1-2` [3-[(2,6-dichlorophenyl)methyl]-8-[(4-bromophenoxy)methyl]-3-hydropurine-6-ylamine], the 50% inhibitory concentration (IC50) is at most 1000 nM. The compound `CCCc1nc2c(N)ncn(Cc3c(Cl)cccc3Cl)c-2n1` [3-[(2,6-Dichlorophenyl)methyl]-8-propyl-3-hydropurine-6-ylamine] displayed a half-inhibitory concentration (IC50) of at most 1000 nM.

`Nc1ncn(Cc2c(Cl)cccc2Cl)c2nc(-c3ccsc3)nc1-2` [3-[(2,6-Dichlorophenyl)methyl]-8-(3-thienyl)-3-hydropurine-6-ylamine] displayed an IC50 of at most 1000 nM. Take `CN(C)c1ncn(Cc2c(Cl)cccc2Cl)c2ncnc1-2` [[3-(2,6-Dichloro-benzyl)-3H-purin-6-yl]-dimethyl-amine]: the concentration for half-maximal inhibition (IC50) is at least 20000 nM. Take `N#Cc1ccccc1Cn1cnc(NCc2ccco2)c2ncnc1-2` [2-((6-((Furan-2-ylmethyl)amino)-3H-purin-3-yl)methyl)benzonitrile]: the IC50 was at least 20000 nM.

Compound `Nc1ncn(Cc2c(Cl)cccc2Cl)c2nc(-c3cnccc3Cl)nc1-2` [3-[(2,6-Dichlorophenyl)methyl]-8-(4-chloro(3-pyridyl))-3-hydropurine-6-ylamine] returned an IC50 of at most 1000 nM. As for `COC(=O)c1ccc(Nc2ncn(Cc3c(Cl)cccc3Cl)c3ncnc2-3)cc1` [Methyl 4-({3-[(2,6-dichlorophenyl)methyl]-3-hydropurin-6-yl}amino)benzoate], the figure is 1000 to 20000 nM; as for `Nc1ncn(Cc2c(Cl)cccc2Cl)c2nc(-c3c(F)cccc3F)nc1-2` [3-[(2,6-dichlorophenyl)methyl]-8-(2,6-difluorophenyl)-3-hydropurine-6-ylamine], at most 1000 nM; as for `Cc1ccncc1-c1nc2c(N)ncn(Cc3c(Cl)cccc3Cl)c-2n1` [3-[(2,6-Dichlorophenyl)methyl]-8-(4-methyl(3-pyridyl))-3-hydropurine-6-ylamine], at most 1000 nM. On to `Cc1ccc(-c2nc3c(N)ncn(Cc4c(Cl)cccc4Cl)c-3n2)s1` [3-[(2,6-Dichlorophenyl)methyl]-8-(5-methyl(2-thienyl))-3-hydropurine-6-ylamine], for which the 50% inhibitory concentration (IC50) was at most 1000 nM. As for `Nc1ncn(Cc2cc(Cl)ccc2Cl)c2ncnc1-2` [3-(2,5-Dichloro-benzyl)-3H-purin-6-ylamine], the IC50 fell in the range of 1000 to 20000 nM.
